In the NIST ThermoML archive (doi:10.1016/j.jct.2017.10.002):
Values joined by “and” are separate entries in the source; they are usually repeats but may differ in a detail not shown here. Equal values may be shown once.

Experiment: molar heat capacity at constant pressure
Details: 101.33 kPa, relaxation calorimetry

CCc1ncc[n-]1.CCc1ncc[n-]1.[Zn+2] [zinc(II) 2-ethylimidazolide]
molar heat capacity at constant pressure
Details	Crystal	Glass
1 K	–	0.01063 J/K/mol
1.832 K	0.0493 J/K/mol	–
1.836 K	0.01638 J/K/mol	–
1.837 K	0.04503 J/K/mol	–
1.839 K	–	0.03581 J/K/mol
1.88 K	0.05213 J/K/mol	–
1.914 K	0.04977 J/K/mol	–
1.915 K	–	0.04142 J/K/mol
1.916 K	0.0188 J/K/mol	–
1.932 K	0.05559 J/K/mol	–
1.989 K	0.0603 J/K/mol	–
2 K	0.0589 J/K/mol [middle of 4 runs]	0.04827 J/K/mol
2.001 K	–	0.04687 J/K/mol
2.005 K	0.02171 J/K/mol	–
2.051 K	0.06589 J/K/mol	–
2.09 K	0.06722 J/K/mol	–
2.091 K	–	0.05348 J/K/mol
2.099 K	0.02469 J/K/mol	–
2.118 K	0.07352 J/K/mol	–
2.183 K	0.07697 J/K/mol	–
2.184 K	–	0.06212 J/K/mol
2.19 K	0.08177 J/K/mol	–
2.197 K	0.02817 J/K/mol	–
2.265 K	0.0916 J/K/mol	–
2.283 K	0.08765 J/K/mol	–
2.285 K	–	0.07138 J/K/mol
2.301 K	0.03272 J/K/mol	–
2.346 K	0.1035 J/K/mol	–
2.41 K	0.03888 J/K/mol	–
2.411 K	0.1031 J/K/mol	–
2.417 K	–	0.08449 J/K/mol
2.488 K	0.1258 J/K/mol	–
2.509 K	–	0.09566 J/K/mol
2.512 K	0.1183 J/K/mol	–
2.516 K	0.04352 J/K/mol	–
2.61 K	0.1475 J/K/mol	–
2.615 K	0.135 J/K/mol	–
2.639 K	0.0517 J/K/mol	–
2.646 K	–	0.1124 J/K/mol
2.733 K	0.1558 J/K/mol	–
2.738 K	–	0.1254 J/K/mol
2.739 K	0.1709 J/K/mol	–
2.744 K	0.0566 J/K/mol	–
2.854 K	0.06599 J/K/mol	–
2.858 K	0.194 J/K/mol	–
2.86 K	0.1727 J/K/mol	–
2.868 K	–	0.1481 J/K/mol
2.979 K	0.1934 J/K/mol	–
2.986 K	0.2216 J/K/mol	0.1712 J/K/mol
2.992 K	0.07481 J/K/mol	–
3 K	0.2257 J/K/mol and 0.076 J/K/mol and 0.2038 J/K/mol	0.168 J/K/mol
3.106 K	0.08446 J/K/mol	–
3.109 K	0.2254 J/K/mol	–
3.118 K	0.2529 J/K/mol	–
3.122 K	–	0.1906 J/K/mol
3.246 K	0.09833 J/K/mol	–
3.248 K	0.2525 J/K/mol	–
3.259 K	0.2898 J/K/mol	–
3.264 K	–	0.2232 J/K/mol
3.388 K	0.2988 J/K/mol	–
3.395 K	0.1127 J/K/mol	–
3.397 K	–	0.2534 J/K/mol
3.407 K	0.3327 J/K/mol	–
3.536 K	0.3331 J/K/mol	–
3.537 K	0.1275 J/K/mol	–
3.551 K	–	0.2838 J/K/mol
3.562 K	0.381 J/K/mol	–
3.691 K	0.3887 J/K/mol	–
3.692 K	0.1432 J/K/mol	–
3.699 K	–	0.3307 J/K/mol
3.737 K	0.4416 J/K/mol	–
3.853 K	0.4343 J/K/mol and 0.1693 J/K/mol	–
3.861 K	–	0.3658 J/K/mol
3.916 K	0.5079 J/K/mol	–
4 K	0.5386 J/K/mol and 0.1872 J/K/mol and 0.4762 J/K/mol	0.4158 J/K/mol
4.023 K	0.1911 J/K/mol	–
4.024 K	0.4906 J/K/mol	–
4.033 K	–	0.4343 J/K/mol
4.093 K	0.5776 J/K/mol	–
4.203 K	0.2234 J/K/mol	–
4.204 K	0.5288 J/K/mol	–
4.213 K	–	0.4859 J/K/mol
4.288 K	0.6588 J/K/mol	–
4.385 K	0.6193 J/K/mol	–
4.39 K	0.2481 J/K/mol	–
4.397 K	–	0.5485 J/K/mol
4.475 K	0.7416 J/K/mol	–
4.577 K	0.2815 J/K/mol	–
4.58 K	0.6992 J/K/mol	–
4.588 K	–	0.6228 J/K/mol
4.673 K	0.833 J/K/mol	–
4.782 K	0.3148 J/K/mol	–
4.784 K	0.7873 J/K/mol	–
4.797 K	–	0.7076 J/K/mol
4.885 K	0.9362 J/K/mol	–
4.995 K	0.8682 J/K/mol and 0.3599 J/K/mol	–
5 K	0.9962 J/K/mol and 0.3674 J/K/mol and 0.8773 J/K/mol	0.8029 J/K/mol
5.008 K	–	0.8138 J/K/mol
5.104 K	1.051 J/K/mol	–
5.217 K	0.968 J/K/mol and 0.4058 J/K/mol	–
5.228 K	–	0.8928 J/K/mol
5.341 K	1.18 J/K/mol	–
5.447 K	1.121 J/K/mol	–
5.449 K	0.4865 J/K/mol	–
5.457 K	–	1.022 J/K/mol
5.583 K	1.326 J/K/mol	–
5.686 K	0.5523 J/K/mol	–
5.687 K	1.228 J/K/mol	–
5.699 K	–	1.17 J/K/mol
5.837 K	1.479 J/K/mol	–
5.933 K	1.341 J/K/mol	–
5.936 K	0.614 J/K/mol	–
5.952 K	–	1.278 J/K/mol
6 K	1.585 J/K/mol and 0.6261 J/K/mol and 1.401 J/K/mol	1.321 J/K/mol
6.1 K	1.651 J/K/mol	–
6.189 K	1.538 J/K/mol	–
6.195 K	0.6531 J/K/mol	–
6.204 K	–	1.457 J/K/mol
6.407 K	1.86 J/K/mol	–
6.464 K	0.7855 J/K/mol	–
6.465 K	1.656 J/K/mol	–
6.479 K	–	1.613 J/K/mol
6.685 K	2.057 J/K/mol	–
6.752 K	1.863 J/K/mol and 0.8975 J/K/mol	–
6.765 K	–	1.809 J/K/mol
6.98 K	2.277 J/K/mol	–
7 K	2.294 J/K/mol and 0.9817 J/K/mol and 2.037 J/K/mol	1.956 J/K/mol
7.049 K	2.08 J/K/mol and 1.007 J/K/mol	–
7.062 K	–	1.981 J/K/mol
7.296 K	2.524 J/K/mol	–
7.357 K	2.322 J/K/mol and 1.115 J/K/mol	–
7.372 K	–	2.248 J/K/mol
7.627 K	2.797 J/K/mol	–
7.681 K	1.273 J/K/mol	–
7.686 K	2.488 J/K/mol	–
7.698 K	–	2.428 J/K/mol
7.976 K	3.092 J/K/mol	–
8 K	3.113 J/K/mol and 1.446 J/K/mol and 2.772 J/K/mol	2.689 J/K/mol
8.016 K	1.458 J/K/mol	–
8.018 K	2.783 J/K/mol	–
8.034 K	–	2.703 J/K/mol
8.339 K	3.414 J/K/mol	–
8.366 K	1.661 J/K/mol	–
8.367 K	3.093 J/K/mol	–
8.389 K	–	3.029 J/K/mol
8.718 K	3.76 J/K/mol	–
8.733 K	3.359 J/K/mol	–
8.737 K	1.859 J/K/mol	–
8.753 K	–	3.269 J/K/mol
9 K	4.029 J/K/mol and 2.004 J/K/mol and 3.588 J/K/mol	3.511 J/K/mol
9.115 K	4.141 J/K/mol	–
9.117 K	2.11 J/K/mol	–
9.118 K	3.738 J/K/mol	–
9.136 K	–	3.605 J/K/mol
9.514 K	3.952 J/K/mol	–
9.518 K	2.336 J/K/mol	–
9.529 K	4.549 J/K/mol	–
9.536 K	–	4.033 J/K/mol
9.931 K	4.428 J/K/mol	–
9.935 K	2.594 J/K/mol	–
9.953 K	–	4.356 J/K/mol
10 K	5.029 J/K/mol and 2.651 J/K/mol and 4.482 J/K/mol	4.413 J/K/mol
10.12 K	5.166 J/K/mol	–
10.35 K	4.823 J/K/mol and 2.874 J/K/mol	4.741 J/K/mol
10.59 K	5.656 J/K/mol	–
10.77 K	5.231 J/K/mol and 3.187 J/K/mol	–
10.78 K	–	5.172 J/K/mol
11.06 K	6.17 J/K/mol	–
11.24 K	5.701 J/K/mol and 3.55 J/K/mol	–
11.25 K	–	5.657 J/K/mol
11.54 K	6.677 J/K/mol	–
11.74 K	6.214 J/K/mol and 3.967 J/K/mol	–
11.75 K	–	6.171 J/K/mol
12.06 K	7.299 J/K/mol	–
12.26 K	6.744 J/K/mol and 4.399 J/K/mol	–
12.27 K	–	6.731 J/K/mol
12.59 K	7.93 J/K/mol	–
12.81 K	7.34 J/K/mol and 4.896 J/K/mol	7.322 J/K/mol
13.15 K	8.616 J/K/mol	–
13.37 K	7.965 J/K/mol and 5.426 J/K/mol	–
13.38 K	–	7.966 J/K/mol
13.74 K	9.343 J/K/mol	–
13.96 K	8.65 J/K/mol and 6.006 J/K/mol	–
13.97 K	–	8.66 J/K/mol
14.35 K	10.14 J/K/mol	–
14.57 K	9.355 J/K/mol and 6.627 J/K/mol	–
14.59 K	–	9.395 J/K/mol
14.99 K	10.97 J/K/mol	–
15 K	10.96 J/K/mol and 7.064 J/K/mol and 9.871 J/K/mol	9.887 J/K/mol
15.22 K	10.14 J/K/mol and 7.319 J/K/mol	–
15.23 K	–	10.18 J/K/mol
15.49 K	11.63 J/K/mol	–
15.72 K	7.865 J/K/mol	–
15.73 K	10.74 J/K/mol	–
15.74 K	–	10.79 J/K/mol
16.94 K	13.59 J/K/mol	–
17.17 K	12.58 J/K/mol	–
17.18 K	9.551 J/K/mol	12.66 J/K/mol
18.52 K	15.74 J/K/mol	–
18.77 K	11.5 J/K/mol	–
18.78 K	14.67 J/K/mol	–
18.79 K	–	14.78 J/K/mol
20 K	17.74 J/K/mol and 13.06 J/K/mol and 16.28 J/K/mol	16.43 J/K/mol
